Common to all, as to assay: Radiolabeled ATP kinase assay, panel of 60 kinases (Table S5)
Assay type in all cases: biochemical

Assay [1] concerns the target T1, panel of 60 human kinases (Homo sapiens, UniProt O94921).
T1 construct: purchased Reaction Biology Corp
Conditions: CDK14/cyclin Y (PFTK1); 0.1 μM; 10 μM ATP; read-out: % Enzyme Activity (relative to DSMO controls). Summed up:
(§1)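 Compounds at two concentrations, 0.1 μM and 0.5 μM, were screened for inhibition of 60 kinases in cell-free assays read out by radiolabeled ATP.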

In assay [2] the target is T2, panel of 60 human kinases (Homo sapiens, UniProt P53778).
T2 construct: purchased Reaction Biology Corp
T2 sequence (P53778 1-367): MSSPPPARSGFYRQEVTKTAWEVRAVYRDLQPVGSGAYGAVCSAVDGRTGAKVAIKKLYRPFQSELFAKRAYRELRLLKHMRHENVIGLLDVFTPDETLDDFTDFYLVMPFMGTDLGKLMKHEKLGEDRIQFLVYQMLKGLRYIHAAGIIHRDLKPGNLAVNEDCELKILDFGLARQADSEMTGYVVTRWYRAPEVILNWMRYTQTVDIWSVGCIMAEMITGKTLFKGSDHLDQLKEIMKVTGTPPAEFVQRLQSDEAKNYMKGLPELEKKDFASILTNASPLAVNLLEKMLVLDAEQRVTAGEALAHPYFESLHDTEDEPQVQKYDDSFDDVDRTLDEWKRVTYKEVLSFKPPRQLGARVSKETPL
As to conditions: P38g; 0.1 μM; 10 μM ATP; read-out: % Enzyme Activity (relative to DSMO controls). Put shortly:
as §1

For assay [3], the target named is T3, panel of 60 human kinases (Homo sapiens, UniProt P08581).
T3 construct: purchased Reaction Biology Corp
T3 sequence (P08581 25-1390): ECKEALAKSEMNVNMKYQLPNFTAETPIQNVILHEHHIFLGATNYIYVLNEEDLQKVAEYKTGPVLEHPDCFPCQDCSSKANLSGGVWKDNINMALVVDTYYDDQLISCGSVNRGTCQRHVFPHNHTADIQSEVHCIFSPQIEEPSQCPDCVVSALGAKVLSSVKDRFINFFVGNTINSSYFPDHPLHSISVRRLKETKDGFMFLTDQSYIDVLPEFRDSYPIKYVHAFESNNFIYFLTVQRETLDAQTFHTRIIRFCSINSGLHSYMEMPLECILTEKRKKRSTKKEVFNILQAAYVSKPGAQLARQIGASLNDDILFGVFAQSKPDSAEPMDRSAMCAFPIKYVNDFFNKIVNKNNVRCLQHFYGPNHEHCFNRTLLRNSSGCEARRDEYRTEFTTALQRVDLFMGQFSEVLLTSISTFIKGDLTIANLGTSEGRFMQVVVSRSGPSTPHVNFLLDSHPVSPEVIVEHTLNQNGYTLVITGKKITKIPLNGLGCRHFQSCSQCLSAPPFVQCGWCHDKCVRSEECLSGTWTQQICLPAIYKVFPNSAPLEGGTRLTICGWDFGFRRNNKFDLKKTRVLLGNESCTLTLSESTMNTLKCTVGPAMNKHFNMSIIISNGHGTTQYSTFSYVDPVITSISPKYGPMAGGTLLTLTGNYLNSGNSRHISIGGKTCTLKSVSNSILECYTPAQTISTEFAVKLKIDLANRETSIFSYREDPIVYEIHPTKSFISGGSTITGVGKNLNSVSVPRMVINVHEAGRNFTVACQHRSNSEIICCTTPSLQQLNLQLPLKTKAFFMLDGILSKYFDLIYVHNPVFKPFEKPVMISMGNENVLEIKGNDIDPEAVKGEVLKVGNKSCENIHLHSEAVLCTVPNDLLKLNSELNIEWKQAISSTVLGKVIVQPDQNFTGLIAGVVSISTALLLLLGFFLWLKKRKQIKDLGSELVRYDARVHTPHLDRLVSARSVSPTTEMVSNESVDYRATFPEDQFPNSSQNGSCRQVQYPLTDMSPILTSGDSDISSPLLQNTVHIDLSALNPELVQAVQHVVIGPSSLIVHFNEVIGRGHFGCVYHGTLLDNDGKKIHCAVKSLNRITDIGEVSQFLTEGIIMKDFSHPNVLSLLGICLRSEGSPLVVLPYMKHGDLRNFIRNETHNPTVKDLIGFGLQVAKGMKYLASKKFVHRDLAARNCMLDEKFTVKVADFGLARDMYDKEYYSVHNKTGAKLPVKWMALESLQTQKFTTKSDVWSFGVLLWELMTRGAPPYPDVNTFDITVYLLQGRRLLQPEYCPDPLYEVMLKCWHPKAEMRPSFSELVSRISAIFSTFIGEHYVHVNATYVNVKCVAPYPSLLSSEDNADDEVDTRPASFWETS
Conditions: c-MET; 0.1 μM; 10 μM ATP; read-out: % Enzyme Activity (relative to DSMO controls). Summed up: as §1

In assay [4] the target is T4, panel of 60 human kinases (Homo sapiens, UniProt O94806).
T4 construct: purchased Reaction Biology Corp
T4 sequence (O94806 1-890): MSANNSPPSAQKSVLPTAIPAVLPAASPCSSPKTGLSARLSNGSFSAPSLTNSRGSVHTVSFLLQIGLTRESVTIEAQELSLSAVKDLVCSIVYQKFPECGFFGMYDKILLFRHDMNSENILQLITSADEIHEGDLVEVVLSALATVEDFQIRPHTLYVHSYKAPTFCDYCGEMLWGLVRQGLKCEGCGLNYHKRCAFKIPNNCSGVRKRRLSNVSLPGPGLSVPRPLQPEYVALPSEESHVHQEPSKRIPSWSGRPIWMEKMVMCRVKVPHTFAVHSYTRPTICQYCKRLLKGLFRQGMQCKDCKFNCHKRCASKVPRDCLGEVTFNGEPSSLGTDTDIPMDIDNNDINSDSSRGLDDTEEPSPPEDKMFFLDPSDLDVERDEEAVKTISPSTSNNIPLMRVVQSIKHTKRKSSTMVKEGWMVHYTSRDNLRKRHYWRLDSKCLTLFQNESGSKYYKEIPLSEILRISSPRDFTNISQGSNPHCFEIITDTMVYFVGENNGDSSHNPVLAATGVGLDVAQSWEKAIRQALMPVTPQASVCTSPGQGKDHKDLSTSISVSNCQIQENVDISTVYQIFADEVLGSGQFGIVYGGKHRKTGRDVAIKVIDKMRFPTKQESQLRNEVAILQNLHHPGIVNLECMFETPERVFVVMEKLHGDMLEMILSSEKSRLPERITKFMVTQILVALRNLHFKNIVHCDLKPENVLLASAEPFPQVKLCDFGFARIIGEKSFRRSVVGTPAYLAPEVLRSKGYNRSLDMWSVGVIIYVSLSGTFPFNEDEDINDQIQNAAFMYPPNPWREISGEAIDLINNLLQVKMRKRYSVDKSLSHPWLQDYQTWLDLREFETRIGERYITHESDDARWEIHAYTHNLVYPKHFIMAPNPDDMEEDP
As to conditions: PKCnu/PRKD3; 0.1 μM; 10 μM ATP; read-out: % Enzyme Activity (relative to DSMO controls). Summed up: as §1

Assay [5] has as its target T5, panel of 60 human kinases (Homo sapiens, UniProt Q08345).
T5 construct: purchased Reaction Biology Corp
Conditions: DDR1; 0.1 μM; 10 μM ATP; read-out: % Enzyme Activity (relative to DSMO controls). Put shortly:
as §1

In assay [6] the target is T6, panel of 60 human kinases (Homo sapiens, UniProt P22607).
T6 construct: purchased Reaction Biology Corp
T6 sequence (P22607 23-806): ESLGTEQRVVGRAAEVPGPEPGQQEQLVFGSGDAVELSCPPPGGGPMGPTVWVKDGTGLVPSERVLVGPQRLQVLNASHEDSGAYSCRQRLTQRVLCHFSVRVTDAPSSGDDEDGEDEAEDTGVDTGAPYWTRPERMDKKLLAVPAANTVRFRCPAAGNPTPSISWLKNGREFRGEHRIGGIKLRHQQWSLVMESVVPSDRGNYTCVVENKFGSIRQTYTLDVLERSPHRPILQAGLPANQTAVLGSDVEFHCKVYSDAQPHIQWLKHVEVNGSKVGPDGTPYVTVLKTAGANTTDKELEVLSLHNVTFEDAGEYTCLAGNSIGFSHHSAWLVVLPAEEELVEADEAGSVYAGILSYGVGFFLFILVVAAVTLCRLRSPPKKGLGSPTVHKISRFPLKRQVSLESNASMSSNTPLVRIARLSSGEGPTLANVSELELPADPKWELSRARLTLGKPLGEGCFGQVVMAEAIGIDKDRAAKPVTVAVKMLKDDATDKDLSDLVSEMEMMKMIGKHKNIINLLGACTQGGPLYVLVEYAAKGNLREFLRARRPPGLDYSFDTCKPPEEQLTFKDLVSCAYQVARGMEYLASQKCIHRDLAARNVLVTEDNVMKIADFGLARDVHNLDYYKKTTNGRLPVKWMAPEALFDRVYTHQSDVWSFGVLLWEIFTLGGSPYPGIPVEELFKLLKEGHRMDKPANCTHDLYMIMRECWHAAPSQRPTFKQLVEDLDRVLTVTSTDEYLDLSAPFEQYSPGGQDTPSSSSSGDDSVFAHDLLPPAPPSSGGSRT
As to conditions: FGFR3; 0.1 μM; 10 μM ATP; read-out: % Enzyme Activity (relative to DSMO controls). Summed up:
as §1

Assay [7] concerns the target T7, panel of 60 human kinases (Homo sapiens, UniProt Q15759).
T7 construct: purchased Reaction Biology Corp
Conditions: P38b/MAPK11; 0.1 μM; 10 μM ATP; read-out: % Enzyme Activity (relative to DSMO controls). Summed up:
as §1

T1 sequence (O94921 whole entry): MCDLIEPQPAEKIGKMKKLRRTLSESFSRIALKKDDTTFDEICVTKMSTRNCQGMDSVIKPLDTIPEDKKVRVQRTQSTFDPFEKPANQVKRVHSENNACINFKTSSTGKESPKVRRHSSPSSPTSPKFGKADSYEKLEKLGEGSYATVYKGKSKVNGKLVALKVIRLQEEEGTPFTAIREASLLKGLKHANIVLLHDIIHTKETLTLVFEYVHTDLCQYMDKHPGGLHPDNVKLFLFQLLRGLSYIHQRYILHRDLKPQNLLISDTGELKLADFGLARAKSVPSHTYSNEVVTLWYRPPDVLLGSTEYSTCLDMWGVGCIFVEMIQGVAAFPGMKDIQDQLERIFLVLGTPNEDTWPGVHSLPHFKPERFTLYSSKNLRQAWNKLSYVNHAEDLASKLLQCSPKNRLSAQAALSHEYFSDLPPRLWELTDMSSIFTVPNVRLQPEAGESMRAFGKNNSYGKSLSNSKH
T7 sequence (Q15759 whole entry): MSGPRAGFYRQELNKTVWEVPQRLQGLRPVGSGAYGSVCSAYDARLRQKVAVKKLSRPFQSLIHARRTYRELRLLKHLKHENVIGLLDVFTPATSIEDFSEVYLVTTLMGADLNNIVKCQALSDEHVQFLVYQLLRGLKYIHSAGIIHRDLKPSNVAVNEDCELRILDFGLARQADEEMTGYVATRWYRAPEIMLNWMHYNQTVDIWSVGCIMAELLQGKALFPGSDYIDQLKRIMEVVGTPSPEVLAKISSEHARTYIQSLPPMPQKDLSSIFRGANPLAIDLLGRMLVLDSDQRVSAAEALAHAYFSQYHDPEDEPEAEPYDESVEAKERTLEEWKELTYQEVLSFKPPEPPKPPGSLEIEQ
T5 sequence (Q08345 19-913): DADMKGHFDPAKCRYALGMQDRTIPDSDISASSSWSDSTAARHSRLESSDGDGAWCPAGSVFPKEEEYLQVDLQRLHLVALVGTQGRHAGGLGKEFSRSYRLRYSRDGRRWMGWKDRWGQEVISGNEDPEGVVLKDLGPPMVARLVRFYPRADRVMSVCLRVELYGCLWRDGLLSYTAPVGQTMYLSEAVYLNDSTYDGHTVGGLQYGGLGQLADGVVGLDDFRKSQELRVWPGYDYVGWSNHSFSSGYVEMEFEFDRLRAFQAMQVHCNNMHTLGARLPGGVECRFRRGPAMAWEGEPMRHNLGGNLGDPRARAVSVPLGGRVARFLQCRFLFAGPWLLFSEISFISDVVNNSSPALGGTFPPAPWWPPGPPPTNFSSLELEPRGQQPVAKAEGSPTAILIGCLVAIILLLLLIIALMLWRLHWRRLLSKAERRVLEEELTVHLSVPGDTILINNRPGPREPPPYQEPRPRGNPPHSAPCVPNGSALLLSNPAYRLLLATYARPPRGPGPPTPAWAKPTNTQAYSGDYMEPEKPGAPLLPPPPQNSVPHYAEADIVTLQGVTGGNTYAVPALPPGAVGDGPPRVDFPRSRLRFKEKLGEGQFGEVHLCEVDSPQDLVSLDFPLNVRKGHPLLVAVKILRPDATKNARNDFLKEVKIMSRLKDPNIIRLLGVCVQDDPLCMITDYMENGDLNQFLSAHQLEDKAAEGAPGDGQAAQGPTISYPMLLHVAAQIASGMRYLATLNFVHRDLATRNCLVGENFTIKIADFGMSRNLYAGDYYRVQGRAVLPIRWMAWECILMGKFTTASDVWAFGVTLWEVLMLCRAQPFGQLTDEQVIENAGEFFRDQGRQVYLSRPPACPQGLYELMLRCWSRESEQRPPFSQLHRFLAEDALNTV

For `CN1CCN(Cc2ccc(-c3cnc4[nH]cc(-c5ccc6[nH]ccc6c5)c4c3)cc2)CC1` [Compound 1, 3-(1H-Indol-5-yl)-5-(4-((4-methylpiperazin-1-yl)methyl)phenyl)-1H-pyrrolo[2,3-b]pyridine, reference compound], the remaining activity at 0.1 µM was 88.2% in assay [1]; 99.3% in assay [2]; 55.9% in assay [3]; 16.1% in assay [4]; 47.5% in assay [5]; 43.5% in assay [6]. The remaining activity at 0.1 µM in assay [7] was determined as 104%.

In the case of `CN1CCN(Cc2ccc(-c3cnc4[nH]cc(-c5cccc(Cl)c5)c4c3)cc2)CC1` [Compound 7ad, 3-(3-Chlorophenyl)-5-(4-((4-methylpiperazin-1-yl)methyl)phenyl)-1H-pyrrolo[2,3-b]pyridine], the remaining activity at 0.1 µM in assay [1] was 92.5%; in assay [2], 108%; in assay [3], 86.2%; in assay [4] it was 17.5%; in assay [5], 82%; in assay [6], 70.1%. Also, in assay [7], the remaining activity at 0.1 µM is 103%.

As to `CN1CCN(Cc2ccc(-c3cnc4[nH]cc(-c5cnn(Cc6ccccc6)c5)c4c3)cc2)CC1` [Compound 7ah, 3-(1-Benzyl-1H-pyrazol-4-yl)-5-(4-((4-methylpiperazin-1-yl)methyl)phenyl)-1H-pyrrolo[2,3-b]pyridine], the remaining activity at 0.1 µM was determined as 30.1% in assay [1]; 106% in assay [2]; 86.6% in assay [3]; 7.09% in assay [4]; 38.3% in assay [5]; 76.6% in assay [6]. The remaining activity at 0.1 µM in assay [7] was found to be 101%.

Take `Cc1nn(C)c(C)c1-c1c[nH]c2ncc(-c3ccc(CN4CCN(C)CC4)cc3)cc12` [Compound 7ai, 5-(4-((4-Methylpiperazin-1-yl)methyl)phenyl)-3-(1,3,5-trimethyl-1H-pyrazol-4-yl)-1H-pyrrolo[2,3-b]pyridine]: the remaining activity at 0.1 µM in assay [1] is 83.9%; in assay [2], 106%; in assay [3] it was 77.4%; in assay [4], 19.2%; in assay [5] it was 76.5%; in assay [6], 82%. Moreover, the remaining activity at 0.1 µM in assay [7] is 104%.

With `CN1CCN(Cc2ccc(-c3cnc4[nH]cc(-c5ccccc5Cl)c4c3)cc2)CC1` [Compound 7as, 3-(2-Chlorophenyl)-5-(4-((4-methylpiperazin-1-yl)methyl)phenyl)-1H-pyrrolo[2,3-b]pyridine], the remaining activity at 0.1 µM in assay [1] was determined as 85%; in assay [2] it was 109%; in assay [3] it was 84.1%; in assay [4], 18.8%; in assay [5], 35.6%; in assay [6], 42.3%. Further, the remaining activity at 0.1 µM in assay [7] is 99.5%.

On to `COc1ccccc1-c1c[nH]c2ncc(-c3ccc(CN4CCN(C)CC4)cc3)cc12` [Compound 7at, 3-(2-Methoxyphenyl)-5-(4-((4-methylpiperazin-1-yl)methyl)phenyl)-1H-pyrrolo[2,3-b]pyridine], for which the remaining activity at 0.1 µM in assay [1] was 76.4%; in assay [2], 103%; in assay [3] it was 86.8%; in assay [4], 50.2%; in assay [5] it was 68.1%; in assay [6] it was 82.1%. The remaining activity at 0.1 µM in assay [7] came out at 97.7%.

`CN1CCN(Cc2ccc(-c3cnc4[nH]cc(-c5ccc6c(c5)OCCO6)c4c3)cc2)CC1` [Compound 7d, 3-(2,3-Dihydrobenzo[b][1,4]dioxin-6-yl)-5-(4-((4-methylpiperazin-1-yl)methyl)phenyl)-1H-pyrrolo[2,3-b]pyridine]: the remaining activity at 0.1 µM was 66.3% in assay [1]; 108% in assay [2]; 110% in assay [3]; 6.42% in assay [4]; 57.4% in assay [5]; 73.4% in assay [6]. Also, the remaining activity at 0.1 µM in assay [7] worked out at 101%.

Turning to `CN1CCN(Cc2ccc(-c3cnc4[nH]cc(-c5ccncc5)c4c3)cc2)CC1` [Compound 7n, 5-(4-((4-Methylpiperazin-1-yl)methyl)phenyl)-3-(pyridin-4-yl)-1H-pyrrolo[2,3-b]pyridine], the remaining activity at 0.1 µM in assay [1] was found to be 35%; in assay [2] it was 114%; in assay [3] it was 102%; in assay [4], 42.3%; in assay [5] it was 79.7%; in assay [6], 85.9%. Besides, the remaining activity at 0.1 µM in assay [7] was 101%.

In the case of `CN1CCN(Cc2ccc(-c3cnc4[nH]cc(-c5ccoc5)c4c3)cc2)CC1` [Compound 7w, 3-(Furan-3-yl)-5-(4-((4-methylpiperazin-1-yl)methyl)phenyl)-1H-pyrrolo[2,3-b]pyridine], the remaining activity at 0.1 µM in assay [1] turned out to be 83.8%; in assay [2], 116%; in assay [3] it was 96.6%; in assay [4], 32.8%; in assay [5], 75.2%; in assay [6], 70.7%. Further, the remaining activity at 0.1 µM in assay [7] worked out at 99.3%.
